Test results as given in ChEMBL document CHEMBL1129734, “Synthesis and structure-activity relationships of a new model of arylpiperazines. 1. 2-[[4-(o-methoxyphenyl)piperazin-1-yl]methyl]-1, 3-dioxoperhydroimidazo[1,5-alpha]pyridine: a selective 5-HT1A receptor agonist” (J Med Chem, 1996).

Biological target: T1, 5-hydroxytryptamine receptor 1A (Rattus norvegicus, UniProt P19327)
T1 sequence (P19327 whole entry): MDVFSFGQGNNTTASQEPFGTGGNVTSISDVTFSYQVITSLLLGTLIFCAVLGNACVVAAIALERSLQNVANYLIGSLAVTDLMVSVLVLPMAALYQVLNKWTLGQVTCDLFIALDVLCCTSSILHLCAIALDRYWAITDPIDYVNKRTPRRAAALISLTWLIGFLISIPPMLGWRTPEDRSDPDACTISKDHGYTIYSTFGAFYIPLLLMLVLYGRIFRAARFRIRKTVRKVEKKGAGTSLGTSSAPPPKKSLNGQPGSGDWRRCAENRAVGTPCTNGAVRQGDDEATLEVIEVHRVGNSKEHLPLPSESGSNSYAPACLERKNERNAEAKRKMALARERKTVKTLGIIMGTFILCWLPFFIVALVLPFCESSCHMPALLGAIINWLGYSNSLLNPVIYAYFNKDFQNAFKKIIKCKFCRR
Assay: Binding affinity towards rat 5-hydroxytryptamine 1A receptor using [3H]8-OH-DPAT radioligand.

| Ki | SMILES |
| --- | --- |
| > 10000 nM | O=C1C2CCCCN2C(=O)N1CCN1CCN(c2ccc(F)cc2)CC1 (centres undefined) |
| 4.4 nM | COc1ccccc1N1CCN(CCCN2C(=O)C3CCCN3C2=O)CC1 (centres undefined) |
| 11.3 nM | O=C1C2CCCN2C(=O)N1CCCCN1CCN(c2cccc(Cl)c2)CC1 (centres undefined) |
| 19.2 nM | O=C1C2CCCN2C(=O)N1CCCN1CCN(c2ccccc2)CC1 (centres undefined) |
| > 1000 nM | O=C1C2CCCCN2C(=O)N1CCN1CCN(c2ccccc2)CC1 (centres undefined) |
| 78.6 nM | O=C1C2CCCCN2C(=O)N1CN1CCN(c2cccc(C(F)(F)F)c2)CC1 (centres undefined) |
| > 1000 nM | O=C1C2CCCN2C(=O)N1CN1CCN(c2ccc([N+](=O)[O-])cc2)CC1 (centres undefined) |
| 57.9 nM | O=C1C2CCCCN2C(=O)N1CCCCN1CCN(c2ccc(F)cc2)CC1 (centres undefined) |
| 45.5 nM | COc1ccccc1N1CCN(CCN2C(=O)C3CCCCN3C2=O)CC1 (centres undefined) |
| > 1000 nM | O=C1C2CCCN2C(=O)N1CCN1CCN(c2ccccc2)CC1 (centres undefined) |
| 57.7 nM | O=C1C2CCCCN2C(=O)N1CN1CCN(c2cccc(Cl)c2)CC1 (centres undefined) |
| 58.4 nM | O=C1C2CCCN2C(=O)N1CN1CCN(c2cccc(Cl)c2)CC1 (centres undefined) |
| > 10000 nM | O=C1C2CCCCN2C(=O)N1CCCN1CCN(c2ccc([N+](=O)[O-])cc2)CC1 (centres undefined) |
| 55.9 nM | O=C1C2CCCN2C(=O)N1CCCN1CCN(c2cccc(Cl)c2)CC1 (centres undefined) |
| 154 nM | O=C1C2CCCCN2C(=O)N1CCCN1CCN(c2ccccc2)CC1 (centres undefined) |
| > 10000 nM | O=C1C2CCCCN2C(=O)N1CCN1CCN(c2ccc([N+](=O)[O-])cc2)CC1 (centres undefined) |
| 65.8 nM | O=C1C2CCCCN2C(=O)N1CCN1CCN(c2cccc(C(F)(F)F)c2)CC1 (centres undefined) |
| 7.2 nM | O=C1C2CCCCN2C(=O)N1CCCCN1CCN(c2cccc(Cl)c2)CC1 (centres undefined) |
| 3.8 nM | O=C1C2CCCN2C(=O)N1CCCN1CCN(c2cccc(C(F)(F)F)c2)CC1 (centres undefined) |
| 5.5 nM | COc1ccccc1N1CCN(CCCCN2C(=O)C3CCCN3C2=O)CC1 (centres undefined) |
| 500 nM | O=C1C2CCCN2C(=O)N1CN1CCN(c2ccc(F)cc2)CC1 (centres undefined) |
| 120 nM | O=C1C2CCCN2C(=O)N1CN1CCN(c2cccc(C(F)(F)F)c2)CC1 (centres undefined) |

| SMILES | Ki |
| --- | --- |
| O=C1C2CCCCN2C(=O)N1CN1CCN(c2ccccc2)CC1 (centres undefined) | 101 nM |

Biological target: D(2) dopamine receptor (Rattus norvegicus, UniProt P61169)
Assay: Binding affinity towards dopamine receptor D2 using [3H]-raclopride radioligand.

Chain of D(2) dopamine receptor (P61169 whole entry): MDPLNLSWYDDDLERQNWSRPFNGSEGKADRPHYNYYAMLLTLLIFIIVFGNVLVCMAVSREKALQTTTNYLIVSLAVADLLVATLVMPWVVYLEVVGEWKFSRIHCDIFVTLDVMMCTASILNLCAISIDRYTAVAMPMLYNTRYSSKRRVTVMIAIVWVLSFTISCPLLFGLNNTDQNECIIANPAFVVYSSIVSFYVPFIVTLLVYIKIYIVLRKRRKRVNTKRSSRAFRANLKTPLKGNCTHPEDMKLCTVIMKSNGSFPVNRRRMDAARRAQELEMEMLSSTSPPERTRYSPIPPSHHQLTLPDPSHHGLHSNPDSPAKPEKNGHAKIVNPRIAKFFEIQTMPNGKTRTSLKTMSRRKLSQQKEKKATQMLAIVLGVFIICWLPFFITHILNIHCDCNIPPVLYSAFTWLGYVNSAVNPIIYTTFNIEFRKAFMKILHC

| Ki | SMILES |
| --- | --- |
| > 10000 nM | O=C1C2CCCCN2C(=O)N1CCN1CCN(c2ccc(F)cc2)CC1 (centres undefined) |
| > 1000 nM | COc1ccccc1N1CCN(CCCN2C(=O)C3CCCN3C2=O)CC1 (centres undefined) |
| 151 nM | O=C1C2CCCN2C(=O)N1CCCCN1CCN(c2cccc(Cl)c2)CC1 (centres undefined) |
| > 1000 nM | O=C1C2CCCN2C(=O)N1CCCN1CCN(c2ccccc2)CC1 (centres undefined) |
| > 1000 nM | O=C1C2CCCCN2C(=O)N1CCN1CCN(c2ccccc2)CC1 (centres undefined) |
| > 1000 nM | O=C1C2CCCCN2C(=O)N1CN1CCN(c2cccc(C(F)(F)F)c2)CC1 (centres undefined) |
| > 10000 nM | O=C1C2CCCN2C(=O)N1CN1CCN(c2ccc([N+](=O)[O-])cc2)CC1 (centres undefined) |
| 615 nM | O=C1C2CCCCN2C(=O)N1CCCCN1CCN(c2ccc(F)cc2)CC1 (centres undefined) |
| 246 nM | COc1ccccc1N1CCN(CCN2C(=O)C3CCCCN3C2=O)CC1 (centres undefined) |
| > 1000 nM | O=C1C2CCCN2C(=O)N1CCN1CCN(c2ccccc2)CC1 (centres undefined) |
| > 10000 nM | O=C1C2CCCCN2C(=O)N1CN1CCN(c2cccc(Cl)c2)CC1 (centres undefined) |
| > 10000 nM | O=C1C2CCCN2C(=O)N1CN1CCN(c2cccc(Cl)c2)CC1 (centres undefined) |
| > 10000 nM | O=C1C2CCCCN2C(=O)N1CCCN1CCN(c2ccc([N+](=O)[O-])cc2)CC1 (centres undefined) |
| > 1000 nM | O=C1C2CCCN2C(=O)N1CCCN1CCN(c2cccc(Cl)c2)CC1 (centres undefined) |
| > 1000 nM | O=C1C2CCCCN2C(=O)N1CCCN1CCN(c2ccccc2)CC1 (centres undefined) |
| > 10000 nM | O=C1C2CCCCN2C(=O)N1CCN1CCN(c2ccc([N+](=O)[O-])cc2)CC1 (centres undefined) |
| > 1000 nM | O=C1C2CCCCN2C(=O)N1CCN1CCN(c2cccc(C(F)(F)F)c2)CC1 (centres undefined) |
| 129 nM | O=C1C2CCCCN2C(=O)N1CCCCN1CCN(c2cccc(Cl)c2)CC1 (centres undefined) |
| > 1000 nM | O=C1C2CCCN2C(=O)N1CCCN1CCN(c2cccc(C(F)(F)F)c2)CC1 (centres undefined) |
| 107 nM | COc1ccccc1N1CCN(CCCCN2C(=O)C3CCCN3C2=O)CC1 (centres undefined) |
| > 10000 nM | O=C1C2CCCN2C(=O)N1CN1CCN(c2ccc(F)cc2)CC1 (centres undefined) |
| > 1000 nM | O=C1C2CCCN2C(=O)N1CN1CCN(c2cccc(C(F)(F)F)c2)CC1 (centres undefined) |

| SMILES | Ki |
| --- | --- |
| O=C1C2CCCCN2C(=O)N1CN1CCN(c2ccccc2)CC1 (centres undefined) | > 10000 nM |

Biological target: T2, Adrenergic receptor alpha-1 (Rattus norvegicus, UniProt P15823+P23944+P43140)
T2 sequence (P15823 whole entry): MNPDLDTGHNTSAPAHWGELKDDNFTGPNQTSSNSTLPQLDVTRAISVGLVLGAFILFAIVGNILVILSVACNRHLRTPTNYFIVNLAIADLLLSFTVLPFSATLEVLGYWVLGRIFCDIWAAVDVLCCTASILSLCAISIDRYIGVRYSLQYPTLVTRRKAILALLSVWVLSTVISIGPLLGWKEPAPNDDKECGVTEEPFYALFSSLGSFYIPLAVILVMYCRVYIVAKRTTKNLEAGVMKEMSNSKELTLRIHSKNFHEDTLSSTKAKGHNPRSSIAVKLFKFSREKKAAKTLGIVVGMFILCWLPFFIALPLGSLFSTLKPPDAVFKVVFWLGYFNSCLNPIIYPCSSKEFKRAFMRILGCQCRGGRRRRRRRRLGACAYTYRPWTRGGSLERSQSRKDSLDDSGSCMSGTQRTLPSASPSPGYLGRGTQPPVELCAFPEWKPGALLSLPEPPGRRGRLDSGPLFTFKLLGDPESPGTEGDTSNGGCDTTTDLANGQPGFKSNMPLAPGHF
T2 sequence (P23944 whole entry): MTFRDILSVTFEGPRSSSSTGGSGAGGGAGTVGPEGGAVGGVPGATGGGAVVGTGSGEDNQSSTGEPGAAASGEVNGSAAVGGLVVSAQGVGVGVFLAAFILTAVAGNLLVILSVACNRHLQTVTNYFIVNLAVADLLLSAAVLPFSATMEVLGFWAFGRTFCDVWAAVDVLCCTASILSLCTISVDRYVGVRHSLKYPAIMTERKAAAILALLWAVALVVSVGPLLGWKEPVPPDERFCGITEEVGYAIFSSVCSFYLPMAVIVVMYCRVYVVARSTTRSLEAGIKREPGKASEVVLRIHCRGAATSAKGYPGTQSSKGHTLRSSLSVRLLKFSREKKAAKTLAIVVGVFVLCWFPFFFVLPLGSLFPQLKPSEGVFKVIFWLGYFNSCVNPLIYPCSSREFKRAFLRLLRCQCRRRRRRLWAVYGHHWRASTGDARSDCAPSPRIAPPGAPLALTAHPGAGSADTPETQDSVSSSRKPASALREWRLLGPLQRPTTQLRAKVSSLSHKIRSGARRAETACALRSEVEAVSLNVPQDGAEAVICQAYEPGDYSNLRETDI
T2 sequence (P43140 whole entry): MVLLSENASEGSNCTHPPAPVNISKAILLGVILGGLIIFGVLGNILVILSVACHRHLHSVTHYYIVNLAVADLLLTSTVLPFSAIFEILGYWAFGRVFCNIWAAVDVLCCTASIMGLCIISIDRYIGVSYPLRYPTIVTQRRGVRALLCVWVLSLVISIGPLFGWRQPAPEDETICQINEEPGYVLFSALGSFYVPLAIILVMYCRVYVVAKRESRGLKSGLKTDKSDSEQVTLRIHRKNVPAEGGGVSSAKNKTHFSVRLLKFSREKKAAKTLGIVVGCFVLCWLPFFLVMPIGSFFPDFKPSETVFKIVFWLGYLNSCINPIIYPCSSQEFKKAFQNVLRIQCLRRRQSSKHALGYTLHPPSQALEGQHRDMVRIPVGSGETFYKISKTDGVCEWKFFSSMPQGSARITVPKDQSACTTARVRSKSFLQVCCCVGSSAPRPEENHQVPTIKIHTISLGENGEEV
Assay: Binding affinity towards alpha-1 adrenergic receptor using [3H]prazosin radioligand.
Assay type: protein assay

| Ki | SMILES |
| --- | --- |
| > 1000 nM | O=C1C2CCCCN2C(=O)N1CCN1CCN(c2ccc(F)cc2)CC1 (centres undefined) |
| 3.1 nM | COc1ccccc1N1CCN(CCCN2C(=O)C3CCCN3C2=O)CC1 (centres undefined) |
| 9.6 nM | O=C1C2CCCN2C(=O)N1CCCCN1CCN(c2cccc(Cl)c2)CC1 (centres undefined) |
| 15.4 nM | O=C1C2CCCN2C(=O)N1CCCN1CCN(c2ccccc2)CC1 (centres undefined) |
| > 1000 nM | O=C1C2CCCCN2C(=O)N1CCN1CCN(c2ccccc2)CC1 (centres undefined) |
| > 1000 nM | O=C1C2CCCCN2C(=O)N1CN1CCN(c2cccc(C(F)(F)F)c2)CC1 (centres undefined) |
| > 10000 nM | O=C1C2CCCN2C(=O)N1CN1CCN(c2ccc([N+](=O)[O-])cc2)CC1 (centres undefined) |
| 10.4 nM | O=C1C2CCCCN2C(=O)N1CCCCN1CCN(c2ccc(F)cc2)CC1 (centres undefined) |
| 131 nM | COc1ccccc1N1CCN(CCN2C(=O)C3CCCCN3C2=O)CC1 (centres undefined) |
| > 1000 nM | O=C1C2CCCN2C(=O)N1CCN1CCN(c2ccccc2)CC1 (centres undefined) |
| 135 nM | O=C1C2CCCCN2C(=O)N1CN1CCN(c2cccc(Cl)c2)CC1 (centres undefined) |
| 292 nM | O=C1C2CCCN2C(=O)N1CN1CCN(c2cccc(Cl)c2)CC1 (centres undefined) |
| > 1000 nM | O=C1C2CCCCN2C(=O)N1CCCN1CCN(c2ccc([N+](=O)[O-])cc2)CC1 (centres undefined) |
| 21.6 nM | O=C1C2CCCN2C(=O)N1CCCN1CCN(c2cccc(Cl)c2)CC1 (centres undefined) |
| 11.4 nM | O=C1C2CCCCN2C(=O)N1CCCN1CCN(c2ccccc2)CC1 (centres undefined) |
| > 10000 nM | O=C1C2CCCCN2C(=O)N1CCN1CCN(c2ccc([N+](=O)[O-])cc2)CC1 (centres undefined) |
| > 1000 nM | O=C1C2CCCCN2C(=O)N1CCN1CCN(c2cccc(C(F)(F)F)c2)CC1 (centres undefined) |
| 12.1 nM | O=C1C2CCCCN2C(=O)N1CCCCN1CCN(c2cccc(Cl)c2)CC1 (centres undefined) |
| 109 nM | O=C1C2CCCN2C(=O)N1CCCN1CCN(c2cccc(C(F)(F)F)c2)CC1 (centres undefined) |
| 8.3 nM | COc1ccccc1N1CCN(CCCCN2C(=O)C3CCCN3C2=O)CC1 (centres undefined) |
| > 1000 nM | O=C1C2CCCN2C(=O)N1CN1CCN(c2ccc(F)cc2)CC1 (centres undefined) |
| > 1000 nM | O=C1C2CCCN2C(=O)N1CN1CCN(c2cccc(C(F)(F)F)c2)CC1 (centres undefined) |

| SMILES | Ki |
| --- | --- |
| O=C1C2CCCCN2C(=O)N1CN1CCN(c2ccccc2)CC1 (centres undefined) | > 1000 nM |
